Laboratory results published in a melting point compilation (Tetko et al.; mined from patent text by program, amines drawn as free bases though some values may be those of a salt).

| melting point [°C] | SMILES |
| --- | --- |
| 154 to 157 | CCCCCc1cnc(N2CCC(c3ccc(COc4ccc(S(C)(=O)=O)cc4)nc3)CC2)nc1 |
| 66 to 67 | N#CCC1COc2ccccc2O1 (configuration not stated) |
| 105 to 110 | COc1cc2c3c4c(c(-c5ccccc5)cc3n(C)c2cc1CCCO)C(=O)NC4=O |
| 154 to 156 | O=C1C=C(Cl)C(=O)c2ccccc21 |
| 100 to 101 | COC(=O)C(C)Oc1ccc(Sc2cc(-n3nc(C)n(C(F)F)c3=O)c(Cl)cc2Cl)cc1 (configuration not stated) |
| 230 | CCC(OC(=O)c1ccccc1)c1nc2c(C(F)(F)F)cccc2c(O)c1C(=O)Nc1nccs1 (configuration not stated) |
| 205 to 208 | N#CCOc1ccc2cc(-c3cnc(-c4cn(Cc5ccccc5)c5ccccc45)o3)ccc2c1 |
| 140 to 146 | COc1nc(C)nc(NC(=O)NS(=O)(=O)c2ccccc2Cc2nnc(SC)s2)n1 |
| 165 to 170 | COc1ccccc1-c1nc2cc(C)ccc2c(=O)[nH]1 |
| 166 | CC(C)(C)OC(=O)COc1ccc2sc(C(=O)Nc3ccccc3NC(=O)OC(C)(C)C)cc2c1 |
| 294 to 295 | CC(=O)Nc1ccc(NC(=O)c2ccc3c(c2)NC(=O)C3(C)C)cc1 |
| 184 to 186 | Cc1nc(C)c(Cl)c(NCc2ccc(Oc3ccc4ncc([N+](=O)[O-])n4n3)c(Cl)n2)n1 |
| 62 to 65 | CN(C)CCCCNC(=O)c1ccccc1-c1nnc(CSCCOc2ccccc2)o1 |
| 82 to 84 | CCOC(=O)CSc1nc(Cl)cc(-c2ccccc2)n1 |
| > 260 | O=C1c2ccccc2C(=O)c2oc(-c3ccc(F)cc3)nc21 |
| 207 to 208 | O=C(NNc1nc(-c2ccccc2)c2cc(Cl)ccc2n1)C(F)(F)F |
| 131 to 132 | Cc1nc(-c2cn(Cc3ccc(C(F)(F)F)cc3)nn2)sc1C(=O)NCc1ccccc1 |
| 207 to 209 | O=S1(=O)N=CN(C2CC2)c2cccc(Cl)c21 |
| 163 to 165 | CCCNC(=S)Nc1nc(OCc2cccc(C#N)c2)ncc1F |
| 149 to 151 | CCn1nc2c(cc1=O)CCSc1sc(Br)cc1-2 |

| melting point [°C] | SMILES |
| --- | --- |
| 151 to 154 | C=C1c2c(C)cccc2NC(=O)N1CC(=O)OCC |
| 151 to 152 | FC(F)(F)c1ccc(-c2cc(Oc3ccc4cccnc4c3)ncn2)c(NCC2CCCCC2)n1 |
| 176 to 177 | COCCCOc1cc(N(C)S(=O)(=O)c2ccccn2)c2[nH]c(C3=NCC(CN4CCS(=O)CC4)S3)cc2c1 (configuration not stated) |
| 186 to 188 | Cc1ccc(-c2nn(-c3ccccc3)c(N)c2C#N)cc1 |
| 166 | CC(Oc1cccc2c(Oc3ccc(C(F)(F)F)cc3F)cccc12)C(=O)O (configuration not stated) |
| 65 to 70 | CN(C)CCNC(=O)c1cccc(-c2ccnc(C(=O)N(O)Cc3ccccc3)c2)c1 |
| 156 to 158 | COC(=O)c1ccc(-c2nc(-c3ccc(C(F)(F)F)cc3)cs2)cc1 |
| 190 to 192 | COC1(c2ccccc2)CCc2c(C)c(O)c(C)c(C)c2O1 (configuration not stated) |
| 267 to 268 | O=C1Nc2ccc(Br)cc2/C1=C/c1ccc[nH]1 |
| 158 | Cc1ccc(S(=O)(=O)N2CCCC2c2ccncc2)cc1 (racemic) |
| 149 to 151 | COC(=O)c1ccc(C(=O)/C=C/c2cc(-c3cc4ccccc4s3)c(OC)cc2OC)cc1 |
| 163 to 165 | CC(=O)NC[C@H]1CN(c2ccc(N3CCC(COc4ccon4)CC3)c(F)c2)C(=O)O1 |
| 92 | CCOC(=O)C1Oc2ccc(Cl)cc2C(C)(c2ccccc2)O1 (configuration not stated) |
| 157 to 158 | C=CC(=O)Oc1ccc(N2C(=O)C(=C(C)C)/C(=C(/C)c3cc(C)oc3C)C2=O)cc1 |
| 222 to 224 | COc1ccc(-n2c(=O)cc(C(F)(F)F)n(C)c2=O)c2c1C(=O)C(C)(C)O2 |
| 219 to 220 | CC(C)n1c(C=O)c(-c2ccc(F)cc2)c(-c2ccccc2)c1C(=O)O |
| 80 to 89 | Cc1noc(-c2cccc(CN3C(=O)C4(COc5cc6c(cc54)OCCO6)c4ccccc43)c2)n1 (configuration not stated) |
| 178 to 180 | CCOC(=O)c1nc(NC(C)=O)sc1Cc1ccccc1 |
| 92 to 93 | O=C(C1CCCCC1)N1CC(=O)N2CCOc3ccccc3C2C1 (configuration not stated) |
| 85 to 90 | Cc1noc(NS(=O)(=O)c2ccccc2-c2ccc(-c3ccon3)cc2)c1C |

| melting point [°C] | SMILES |
| --- | --- |
| 282 to 284 | CN1CCN(c2ccc(Nc3nccc(-c4c[nH]nc4-c4ccc(Cl)cc4)n3)cc2)CC1 |
| 65 to 67 | Fc1cccc2[nH]c(-c3ccccc3)cc12 |
| 248 to 250 | O=C(O)c1ccc2c(c1)CCc1c(F)cccc1C2=O |
| 247 to 251 | CSc1ncc2cc(Oc3c(F)cccc3F)c(=O)n(C)c2n1 |
| 188 to 189 | CC(c1ccnc(C#N)c1)C(O)(Cn1cncn1)c1ccc(F)cc1F (configuration not stated) |
| 247 to 250 | O=C1OC(=O)c2c1ccc1ncccc21 |
| 136 to 138 | CCCc1nn(C)c2c(=O)n(CCCc3cccc(OC(C)(CC)C(=O)O)c3)c(C)nc12 (configuration not stated) |
| 100 | CCCc1c(OCCCOc2ccccc2)ccc2c1OC(CCC(=O)OC)(CCC(=O)OC)CC2=O |
| 191 to 193 | Clc1nc(-c2ccco2)c2ncn(Cc3ccc(Cl)c(Cl)c3)c2n1 |
| 116 to 120 | Cc1cc(C)c2cccc(OCc3c(Cl)ccc(S(=O)(=O)N4CCC[C@H]4C(=O)NCCCNC(=O)c4cccc(C=NN)c4)c3Cl)c2n1 |
| 226 to 230 | CNS(=O)(=O)c1ccc(-c2c(Cl)nc(C(F)(F)F)nc2-c2ccc(S(C)(=O)=O)cc2)cc1 |
| 195 to 200 | O=C1NC(=O)C(c2c[nH]c3ccc(Br)cc23)C1c1cc2c3c(ccn3CCC2)c1 (configuration not stated) |
| 240 | CCCC(=O)Nc1n[nH]c2cc(Cl)c(-c3ccc(CC)cc3)cc12 |
| > 260 | Nc1nc2cc(CO)ccc2n1Cc1cccc2cccnc12 |
| 189 to 191 | COc1ccc(N2CCN(c3c(C)c(C)c4c(c3C)C(c3ccc(C)cc3)C(C)(C)O4)CC2)cc1 (configuration not stated) |
| 154 to 156 | Cc1cc(S(=O)(=O)c2ccc([N+](=O)[O-])cc2)cc(Br)n1 |
| 197 to 199 | Oc1ccccc1-c1nc(-c2ccccc2O)n(Cc2ccncc2)n1 |
| 179 to 181 | O=C(O)Cc1cccc2c(=O)cc(-c3ccccc3F)oc12 |
| 132 | C=CCn1c2c(c3ccccc31)C(=O)C(Cn1ccnc1C)CC2 (configuration not stated) |
| > 260 | CCOC(=O)c1cn(C)c2cnc3c(F)c(N4CCC(O)(c5cccc(C(F)(F)F)c5)CC4)ccc3c2c1=O |

More lines, now with the values behind:

| SMILES | melting point [°C] |
| --- | --- |
| CC(C)(C)c1cc(SCCC(=O)NC23CC4CC(CC(C4)C2)C3)cc(C(C)(C)C)c1O | 172 to 174 |
| CC(=O)C1C(=O)CC(CCS(=O)c2ccc(C(F)(F)F)cc2)CC1=O (configuration not stated) | 99 to 100 |
| O=c1ccoc(C(O)c2ccc(F)cc2)c1O (configuration not stated) | 154 to 156 |
| Cc1ccc(S(=O)(=O)NC(=O)C2C(=O)CC(CC(C)C)CC2=O)cc1 (configuration not stated) | 128 to 130 |
| CN(C)c1ccc(/C=C/c2ccc(F)cc2F)cc1 | 139 to 140 |
| Fc1cccc(F)c1-c1nc2c(s1)NCCCC2 | 143 to 144 |
| CCOC(=O)C1(c2ccccc2)CCN(CC(=O)O)CC1 | 148 to 150 |
| C[C@@H](CO)NC(=S)[C@@H](CC(=O)OC(C)(C)C)NC(=O)OC(C)(C)C | 70 to 72 |
| Nc1cc(Cl)ccc1-n1cccc1 | 89 to 90 |
| C[C@@H](C(N)=O)c1ccc(NS(=O)(=O)c2ccc(C(F)(F)F)cc2)cc1 | 178 to 180 |
| C=CCC1C2CCC(C2)C1NC(=O)OCc1ccccc1 (configuration not stated) | 70 |
| ClCCN1C2CCC1CC(c1ccc3ccccc3c1)C2 (configuration not stated) | 84 to 88 |
| Clc1ccc(NN=Cc2cccnc2)cc1 | 186 |
| CN1C(=S)N(c2cc(C(F)(F)F)cc(C(F)(F)F)c2)C(O)C1O (configuration not stated) | 133 to 135 |
| Clc1nc2cc(Br)c(Br)c(Br)c2[nH]1 | 263 to 266 |
| CNc1nc(CSC)c(-c2ccncc2)s1 | 135 to 138 |
| CC1CCc2ncc(C#N)c(=O)n21 (configuration not stated) | 148 |
| CCCc1c(OCCCOc2ccc(C(=O)C(=O)O)cc2)ccc(C(=O)OC)c1O | 86 to 87 |
| CC(=O)c1nc2cc(Cl)c(OCC(F)(F)F)cc2cc1O | 104 to 105 |
| O=S(=O)(c1ccc(N2CCCCCC2)cc1)N1CC(O)CC1=S (configuration not stated) | 138 to 139 |
| CCOc1ncc(C(=O)O)c2c(N)cccc12 | 159 to 165 |

| SMILES | melting point [°C] |
| --- | --- |
| CN(C)C1(c2ccc(F)cc2)CCC(=CC(=O)N2CCC(c3c[nH]c4ccccc34)C2)CC1 (configuration not stated) | 109 to 112 |
| COc1ccc(C(=O)CCCCCl)cc1S(N)(=O)=O | 135 to 136 |
| Nc1nc2c(c(=O)[nH]1)S[C@H](CCc1ccc(C(=O)O)s1)CN2 | 283 to 285 |
| c1ccc2c(c1)CCCC2c1c[nH]cn1 (configuration not stated) | 105 to 110 |
| CN1CCOc2c(C(=O)O)cc(Cl)cc21 | 202 to 204 |
| COC(=O)C1(CCCCl)Sc2cc(OC)ccc2OCC1=O (configuration not stated) | 64 to 65 |
| COc1cc2cn(N3C(C)CCCC3C)nc2cc1OC (configuration not stated) | 162 to 163 |
| CCn1c2ccc(C(=O)CCCCCl)cc2c2cc(C(=O)CCCCCl)ccc21 | 94 to 95 |
| O=S1(=O)NC=Nc2c(Br)cc(Br)cc21 | 289 to 292 |
| CCCc1c(C(=O)CO)c2ccc(C(N)=O)cc2n1Cc1ccccc1Cl | 231 to 234 |
| COC(=O)c1ccc(C(F)(F)F)nc1S(=O)(=O)NC(=O)Nc1nc(OC)cc(OC)n1 | 130 to 137 |
| CC(C)(C)NS(=O)(=O)c1cccc2c1CSC2=O | 121 to 124 |
| NC(N)=Nc1nc(-c2csc(CNC(=O)CO)n2)cs1 | 239 |
| CCOC1=C(C#N)S(=O)(=O)N=C1N | 236 to 238 |
| O=C(Nc1nc(-c2ccc(OC(F)F)cc2)cs1)C1CC1 | 202 to 203 |
| C=C(F)C(=O)Oc1c(Cl)c(Cl)c(Cl)c(Cl)c1Cl | 90 to 92 |
| C=CCNC(=O)C(C)N (configuration not stated) | 77.5 to 78 |
| O=[N+]([O-])c1ccccc1OCC(O)CO (configuration not stated) | 96 |
| CC(C(=S)c1cc(NC=O)ccn1)S(C)=O (configuration not stated) | 132 |
| Cc1cc(-c2nc(CCl)co2)sc1Br | 71 to 72 |
| O=C(CCN1CCCCC1)Nc1ccc2[nH]c3ccc(NC(=O)CCN4CCCCC4)cc3c(=O)c2c1 | > 320 |
